Test results as given in patent EP0253697A2, “Medicament and medicament compositions for the treatment of infective diseases due to viruses, as well as for the treatment of tumours” (INSTITUT NATIONAL DE LA SANTE ET DE LA RECHERCHE MEDICALE …, priority 1986, dated 1988).

Legend:
[1] = tested on: virus de l'herpès simplex du type 1 (HSV.1); assay: Inhibition of viral lysis plaque formation (PFU) in infected VERO cells; type: cell-based; details: in vitro, DNA virus
Excerpt: (§1) Des cellules VERO (lignée de cellules "normales") ont été infectées par le virus de l'herpès simplex du type 1 (HSV.1) ou par le virus de la rougeole à une multiplicité d'infection d'une particule infectieuse par cellule. Les cellules infectées ont été traitées par GAH aux doses indiquées sur la Figure 1. L'inhibition observée, emprimée en logarithme d'inhibition de la formation de plages de lyse cellulaire par le virus (PFU-"Plage Forming Unit") par ml de milieu, semble apparaître brusquement après avoir dépassé une concentration "seuil" située autour de 600 lim. par litre de milieu cellulaire. Le fait que la concentration optimale soit la même pour les deux virus testés, qui, comme indiqué ci-dessus, sont très différents, est en faveur d'une action de la substance au niveau cellulaire, action capable d'éveiller un état de résistance envers les virus infectants.

[2] = tested on: virus de la rougeole; assay: as above; type: cell-based; details: in vitro, RNA virus
Excerpt: as §1

[3] = tested on: cellules (infectées ou non); assay: Toxicity for the cells (infected or not) in the antiviral experiments; type: cell-based
[4] = tested on: virus du sarcome de Rous (RSV, souche B77); assay: Reverse transcriptase activity in culture medium and focus formation, infected chicken fibroblasts; type: cell-based, poulet
Excerpt: Il a été également montré que le GAH provoque aussi une importante inhibition de la multiplication des virus appartenant à la famille des rétrovirus (virus à ARN possédant une activité dite de transcriptase inverse, c'est-à-dire une ADN polymé- rase-ARN dépendante). Ceci a été démontré avec le virus du sarcome de Rous (RSV, virus oncogène, sous-famille oncovirinae) et avec le virus visna (virus lytique, sous-famille lentivirinae à laquelle appartient aussi le H.I.V.). • 1 - Des fibroblastes de poulet, en passage secondaire, sont ensemencés et traités, ou non, par le GAH à diverses concentrations. Ensuite, les cellules sont infectées par le RSV (souche B77). Le milieu de culture des cellules infectées est recueilli à différents temps post- infection et l'activité transcriptase inverse a été mesurée, cette mesure étant considérée généralement comme un reflet de la libération des particules virales dans les milieux de culture. […] Il est intéressant de signaler que, comme dans le cas des hespesvirus, l'activité antivirable apparaît à la même dose de GAH capable de provoquer l'arrêt de la prolifération cellulaire, ce qui est en accord avec la notion d'une action du GAH agissant en premier lieu au niveau cellulaire.

[5] = tested on: virus Visna; assay: Reverse transcriptase activity, infected sheep embryo fibroblasts; type: cell-based, mouton; details: GAH present at the time of infection, versus untreated cells; Figure 1B
[6] = tested on: carcinome de tumeur mammaire (lignée MCF7); assay: DNA synthesis (3H-thymidine incorporation) in tumour cells; type: cell-based, humain
Excerpt: (§2) L'effet du GAH a été étudié sur diverses lignées cellulaires obtenues à partir de tumeurs humaines et fibroblastes de poumon foetal humain (MRC5).
(§3) - Ordonnées : incorporation de ^3H-thymidine (comptage de la radioactivité correspondante en coups par minute (CPM).

[7] = tested on: carcinome du colon (lignée HT29); assay: as above; type: cell-based, humain
Excerpt: as §2, §3

[8] = tested on: cellules de tumeurs de Burkitt; assay: as above; type: cell-based, humain
Excerpt: as §2, §3

[9] = tested on: llgnée de tumeur d' Ewing; assay: as above; type: cell-based, humain
Excerpt: as §2, §3

[10] = tested on: mélanome; assay: as above; type: cell-based, humain
Excerpt: as §2, §3

[11] = tested on: cellules de lymphome murin RBL5; assay: as above; type: cell-based
[12] = tested on: leucémie L1 210; assay: as above; type: cell-based, murin; details: Figure 2
Excerpt: as §2
- Abscisses : temps de contact des différentes cellules avec le le L-glutamique acide y monohydroxamate : 1-L1210 • 2 - BL60 • 3 - NterDau • 4-B16
as §3

[13] = tested on: cellules de mélanome; assay: Survival of melanoma cells versus dose and contact time; type: cell-based
Method: Sur une lignée de mélanome prise comme exemple, on peut voir que l'effet inhibiteur est dépendant de la dose (Figure 3), mais également du temps de contact. Dès 2 heures de contact des cellules de mélanome avec 1,5 mM de GAH, il y a mort cellulaire, qui s'amplifie jusqu'à 72 heures de culture des cellules tumorales, puis les cellules échappent à cette inhibition (Figure 4). […] Ainsi, pour les cellules de mélanome, un contact de 30 heures avec 1,5 mM de GAH est nécessaire pour avoir une mort cellulaire complète à 72 heures, alors que 50 heures de contact sont nécessaires avec une concentration de drogue de 400 µM (Figure 5).
- Abscisses : temps de contact des cellules de mélanome avec différentes concentrations de GAH : • 400 µM; ○ 1 mM; . 1,5 mM - Ordonnées : pourcentage de survie des cellules de mélanome à 72 heures.

[14] = Growth, DNA synthesis and survival of normal MRC5 cells; type: cell-based, humain; details: human; normal MRC5 cells, Figure 6; read-out: doses sans mort cellulaire
Excerpt: as §2
(§4) La croissance des cellules MRC5 dans un milieu déprimé en glutamine est aussi arrêtée, avec, cependant, un décalage dans l'inhibition par rapport à l'effet du GAH. […] Il s'agit probablement de deux mécanismes d'action différents.
(§5) • - Abscisses : temps de culture des cellules MRC5 : 1. avec différentes conditions de culture • O témoin MRC5 milieu normal • milieu déprimé en glutamine • ? milieu normal avec D-glutamyl acide (GAH 2. après élimination des différentes drogues et addition • ? milieu normal MRC5 témoin • milieu avec glutamine 2mM • ? milieu normal • ? milieu GAH + glutamine 2mM • - Ordonnées : nombre de cellules vivantes.

[15] = tested on: cellules normales MRC5; assay: as above; type: cell-based, humain
Excerpt: as §2, §4, §5

[16] = tested on: leucémie L1 210; assay: Survival of mice inoculated with L1 210 leukaemia; type: in vivo, souris DBA/2; details: 5x10^5 cells IP; 1200 mg/kg/day days 1-4, 600 mg/kg/day days 8-10; Figure 8
Excerpt: (§6) Compte tenu des résultats in vitro, l'activité anti-tumorale de GAH a été étudiée sur deux modèles tumoraux murins : leucémie L1 210 et mélanome B16.
Pour la leucémie L1 210, maintenue par passage intra-péritonéal chez la souris DBA/2, le nombre de cellules utilisées pour les essais thérapeutiques est de 5.10^5 cellules par souris.
(§7) Les résultats positifs qui ont été obtenus sont exprimés par le pourcentage d'augmentation de la survie, considérant comme significative une augmentation de 30%.
Courbe de survie des souris DBA/2-B6D2F1 inoculées avec L1 210 (5x10^5 cellules dans 0,5 ml IP) après traitement avec L-glutamique acide monohydroxamate : 1200 mg/kg dose/jour, les jours 1, 2, 3, 4; et 600 mg/kg dose/jour, les jours 8, 9, 10 (les groupes sont constitués de 8 souris.). - Abscisses : jours après l'inoculation de cellules tumorales - Ordonnées : pourcentage de souris vivantes.

[17] = tested on: mélanome B16; assay: Survival of mice inoculated with B16 melanoma; type: in vivo, souris; details: 10^6 cells IP; 1200 mg/kg/day days 1-4, 600 mg/kg/day days 8-11, 300 mg/kg/day days 16-19; Figure 9
Excerpt: as §6
Pour le mélanome B16, maintenu par passage souscutanés successifs, la dose injectée par voie intra-péritonéale pour les essais thérapeutiques est de 10^6 cellules par souris.
as §7
Courbe de survie des souris C5b16 inoculées avec les cellules de mélanome B16 (10^6 cellules dans 0,5 ml IP)après traitement avec GAH : 1200 mg/kg dose/jour, les jours 1, 2, 3, 4; 600 mg/kg dose/jour, les jours 8, 9, 10, 11; et 300 mg/kg dose/jour, les jours 16, 17, 18, 19 (les groupes traités et non traités sont de 6 animaux). - Abscisses : jours après l'inoculation de cellules tumorales - Ordonnées : pourcentage de souris vivantes

[18] = tested on: colonies métas- tasiantes du mélanome B 16; assay: Cytolytic effect on cells isolated from metastases in vitro; type: cell-based

Compound: N[C@@H](CCC(=O)NO)C(=O)O [GAH, L-glutamique acide y monohydroxamate]
- inhibition du virus [1]: inhibition très significative
- inhibition du virus [2]: inhibition très significative
- toxicité pour les cellules [3]: faible taux, voire l'absence, de toxicité
- activité transcriptase inverse dans le milieu de culture ([4]; GAH 1mM present at the time of infection, chicken fibroblasts, Figure 1A): indétectable
- formation de foyers de cellules transformées par le RSV ([4]; GAH-treated cultures, untreated controls show foci after three days): aucune formation de foyers
- activité transcriptase inverse [5]: diminution considérable
- effet sur la synthèse de l'ADN [6]: effet inhibiteur total
- effet sur la synthèse de l'ADN [7]: effet inhibiteur total
- effet sur la synthèse de l'ADN [8]: effet inhibiteur total
- effet sur la synthèse de l'ADN [9]: effet inhibiteur total
- effet sur la synthèse de l'ADN [10]: effet inhibiteur total
- effet sur la synthèse de l'ADN [11]: effet inhibiteur total
- effet sur la synthèse de l'ADN [12]: effet inhibiteur total
- temps de contact nécessaire pour une mort cellulaire complète à 72 heures ([13]; 400 µM GAH (Figure 5)): 50 heures
- temps de contact nécessaire pour une mort cellulaire complète à 72 heures ([13]; 1,5 mM GAH (Figure 5)): 30 heures
- temps de contact à partir duquel il y a mort cellulaire ([13]; 1,5 mM GAH, death from this contact time on, increasing up to 72 h of culture (Figure 4)): 2 heures
- MNTC [14]: ≤ 800 µM
- synthèse de l'ADN des cellules normales MRC5 [15]: arrêt de synthèse de l'ADN
- réversion de la croissance par addition de glutamine ([15]; GAH-treated MRC5 cells, glutamine 2mM added (Figure 7)): ne reverse pas
- effet sur les cellules normales ([15]; reversible after removal of the drug): effet cytostatique
- activité antitumorale (augmentation de la survie) [16]: activité antitumorale
- activité antitumorale (augmentation de la survie) [17]: activité antitumorale
- effet sur des cellules isolées de métastases [18]: effet cytolytique
